Experimental data reported in ChEMBL document CHEMBL4507319 (2021).

How the values were obtained:
Details in all cases: Compound concentration 1000.0 nM
[1] = biological target: T1, Interleukin-1 receptor-associated kinase 4 (Homo sapiens) (UniProt Q9NWZ3)
T1 sequence (whole entry): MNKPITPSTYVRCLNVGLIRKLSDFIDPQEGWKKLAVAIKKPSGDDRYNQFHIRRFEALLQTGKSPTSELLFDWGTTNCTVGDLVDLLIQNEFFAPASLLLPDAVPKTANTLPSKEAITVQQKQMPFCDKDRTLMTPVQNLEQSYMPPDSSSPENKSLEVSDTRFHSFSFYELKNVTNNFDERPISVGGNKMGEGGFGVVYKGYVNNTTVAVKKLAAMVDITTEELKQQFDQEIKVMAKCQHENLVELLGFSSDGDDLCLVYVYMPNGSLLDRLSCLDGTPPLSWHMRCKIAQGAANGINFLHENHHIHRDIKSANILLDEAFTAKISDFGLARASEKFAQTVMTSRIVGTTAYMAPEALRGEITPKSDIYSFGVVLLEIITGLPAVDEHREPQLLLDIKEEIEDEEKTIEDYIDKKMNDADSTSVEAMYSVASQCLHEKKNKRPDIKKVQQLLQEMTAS

[2] = biological target: T2, Myotonin-protein kinase (Homo sapiens) (UniProt Q09013)
T2 sequence (whole entry): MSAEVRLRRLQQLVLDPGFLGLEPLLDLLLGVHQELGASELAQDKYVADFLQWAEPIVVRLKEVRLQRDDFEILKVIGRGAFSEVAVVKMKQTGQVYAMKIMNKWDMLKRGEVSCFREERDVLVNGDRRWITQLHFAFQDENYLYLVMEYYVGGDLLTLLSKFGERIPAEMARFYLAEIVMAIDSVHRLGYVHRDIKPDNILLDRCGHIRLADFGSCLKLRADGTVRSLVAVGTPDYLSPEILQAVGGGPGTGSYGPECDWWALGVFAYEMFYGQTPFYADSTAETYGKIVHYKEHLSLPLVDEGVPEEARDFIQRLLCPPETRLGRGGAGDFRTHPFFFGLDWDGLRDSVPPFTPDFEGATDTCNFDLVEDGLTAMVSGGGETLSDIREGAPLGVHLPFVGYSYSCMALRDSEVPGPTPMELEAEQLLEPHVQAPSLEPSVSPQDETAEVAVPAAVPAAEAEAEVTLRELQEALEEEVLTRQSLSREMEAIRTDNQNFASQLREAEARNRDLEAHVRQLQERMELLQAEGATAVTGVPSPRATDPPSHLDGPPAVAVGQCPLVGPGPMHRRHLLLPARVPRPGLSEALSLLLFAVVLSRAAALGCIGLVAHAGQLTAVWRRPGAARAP

[3] = biological target: Mitogen-activated protein kinase kinase kinase 10 (Homo sapiens) (UniProt Q02779)
[4] = biological target: T3, Rhodopsin kinase GRK1 (Homo sapiens) (UniProt Q15835)
T3 sequence (whole entry): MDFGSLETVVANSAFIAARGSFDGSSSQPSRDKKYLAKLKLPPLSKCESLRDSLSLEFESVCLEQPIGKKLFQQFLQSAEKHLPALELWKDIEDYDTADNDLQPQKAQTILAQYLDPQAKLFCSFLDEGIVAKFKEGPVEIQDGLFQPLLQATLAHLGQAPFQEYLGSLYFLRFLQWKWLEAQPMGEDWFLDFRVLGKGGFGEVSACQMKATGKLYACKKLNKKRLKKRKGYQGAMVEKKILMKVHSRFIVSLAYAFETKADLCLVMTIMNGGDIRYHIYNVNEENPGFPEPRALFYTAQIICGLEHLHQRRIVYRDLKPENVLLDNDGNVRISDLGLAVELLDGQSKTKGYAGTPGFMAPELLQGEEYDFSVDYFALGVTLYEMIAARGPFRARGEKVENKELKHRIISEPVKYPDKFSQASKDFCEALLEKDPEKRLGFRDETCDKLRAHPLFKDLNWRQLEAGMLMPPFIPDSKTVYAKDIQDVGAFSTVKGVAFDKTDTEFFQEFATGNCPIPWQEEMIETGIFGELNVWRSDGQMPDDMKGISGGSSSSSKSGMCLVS

[5] = biological target: Serine/threonine-protein kinase PAK 2 (Homo sapiens) (UniProt Q13177)
[6] = biological target: Calcium/calmodulin-dependent protein kinase type 1B (Homo sapiens) (UniProt Q6P2M8)
[7] = biological target: Activin receptor type-2B (Homo sapiens) (UniProt Q13705)
[8] = biological target: Dual specificity mitogen-activated protein kinase kinase 2 (Homo sapiens) (UniProt P36507)
[9] = biological target: Fibroblast growth factor receptor 3 (Homo sapiens) (UniProt P22607)
[10] = biological target: Serine/threonine-protein kinase PAK 4 (Homo sapiens) (UniProt O96013)
[11] = biological target: Serine/threonine-protein kinase WNK3 (Homo sapiens) (UniProt Q9BYP7)
[12] = test system: Epidermal growth factor receptor (Homo sapiens), P00533 [UNDEFINED MUTATION]
[13] = biological target: Dual specificity mitogen-activated protein kinase kinase 4 (Homo sapiens) (UniProt P45985)
[14] = biological target: T4, MAP kinase-activated protein kinase 5 (Homo sapiens) (UniProt Q8IW41)
T4 sequence (whole entry): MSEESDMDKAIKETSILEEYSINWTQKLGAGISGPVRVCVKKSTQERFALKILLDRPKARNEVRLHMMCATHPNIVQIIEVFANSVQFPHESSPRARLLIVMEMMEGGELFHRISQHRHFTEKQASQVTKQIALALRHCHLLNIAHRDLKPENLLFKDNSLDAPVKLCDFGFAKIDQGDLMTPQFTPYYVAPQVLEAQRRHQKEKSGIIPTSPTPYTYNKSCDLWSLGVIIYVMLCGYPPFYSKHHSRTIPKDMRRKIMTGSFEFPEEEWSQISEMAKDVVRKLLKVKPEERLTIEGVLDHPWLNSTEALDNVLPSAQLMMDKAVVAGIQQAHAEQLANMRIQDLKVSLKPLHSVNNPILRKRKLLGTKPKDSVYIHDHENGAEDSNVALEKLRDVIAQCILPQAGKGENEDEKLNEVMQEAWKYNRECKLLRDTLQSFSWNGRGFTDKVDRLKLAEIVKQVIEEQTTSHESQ

[15] = biological target: Mitogen-activated protein kinase kinase kinase 11 (Homo sapiens) (UniProt Q16584)
Sequence of Mitogen-activated protein kinase kinase kinase 11 (Homo sapiens) (Q16584 whole entry, looked up): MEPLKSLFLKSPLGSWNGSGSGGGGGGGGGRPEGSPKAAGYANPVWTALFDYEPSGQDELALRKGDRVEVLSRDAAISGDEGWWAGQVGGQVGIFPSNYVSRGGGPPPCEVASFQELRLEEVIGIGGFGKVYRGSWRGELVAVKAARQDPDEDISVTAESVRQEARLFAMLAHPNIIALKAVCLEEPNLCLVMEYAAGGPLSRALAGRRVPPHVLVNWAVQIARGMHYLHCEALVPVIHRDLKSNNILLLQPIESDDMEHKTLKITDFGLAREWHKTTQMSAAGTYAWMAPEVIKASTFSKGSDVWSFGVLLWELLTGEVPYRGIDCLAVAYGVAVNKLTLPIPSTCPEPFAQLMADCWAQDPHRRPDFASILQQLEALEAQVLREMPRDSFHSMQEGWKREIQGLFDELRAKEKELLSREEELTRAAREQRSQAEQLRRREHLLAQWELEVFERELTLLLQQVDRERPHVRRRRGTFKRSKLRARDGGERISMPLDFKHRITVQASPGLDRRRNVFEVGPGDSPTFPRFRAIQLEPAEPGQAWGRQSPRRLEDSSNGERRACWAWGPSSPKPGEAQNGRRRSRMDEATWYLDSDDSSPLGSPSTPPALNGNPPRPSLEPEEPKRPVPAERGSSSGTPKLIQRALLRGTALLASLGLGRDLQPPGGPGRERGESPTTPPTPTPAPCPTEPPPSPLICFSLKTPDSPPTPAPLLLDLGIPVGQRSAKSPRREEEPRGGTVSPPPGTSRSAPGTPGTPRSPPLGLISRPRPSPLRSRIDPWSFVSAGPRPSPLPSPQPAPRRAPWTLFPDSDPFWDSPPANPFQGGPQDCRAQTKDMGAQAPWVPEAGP

Sequence of Calcium/calmodulin-dependent protein kinase type 1B (Homo sapiens) (Q6P2M8 whole entry): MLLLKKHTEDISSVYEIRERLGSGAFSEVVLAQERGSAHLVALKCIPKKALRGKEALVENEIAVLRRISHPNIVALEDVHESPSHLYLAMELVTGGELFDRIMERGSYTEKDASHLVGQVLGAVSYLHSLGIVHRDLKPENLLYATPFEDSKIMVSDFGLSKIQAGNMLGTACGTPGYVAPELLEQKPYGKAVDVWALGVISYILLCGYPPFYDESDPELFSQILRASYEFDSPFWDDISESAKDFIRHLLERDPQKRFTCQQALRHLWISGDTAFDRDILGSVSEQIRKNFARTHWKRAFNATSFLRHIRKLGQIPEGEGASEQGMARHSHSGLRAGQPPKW
Sequence of Mitogen-activated protein kinase kinase kinase 10 (Homo sapiens) (Q02779 whole entry, looked up): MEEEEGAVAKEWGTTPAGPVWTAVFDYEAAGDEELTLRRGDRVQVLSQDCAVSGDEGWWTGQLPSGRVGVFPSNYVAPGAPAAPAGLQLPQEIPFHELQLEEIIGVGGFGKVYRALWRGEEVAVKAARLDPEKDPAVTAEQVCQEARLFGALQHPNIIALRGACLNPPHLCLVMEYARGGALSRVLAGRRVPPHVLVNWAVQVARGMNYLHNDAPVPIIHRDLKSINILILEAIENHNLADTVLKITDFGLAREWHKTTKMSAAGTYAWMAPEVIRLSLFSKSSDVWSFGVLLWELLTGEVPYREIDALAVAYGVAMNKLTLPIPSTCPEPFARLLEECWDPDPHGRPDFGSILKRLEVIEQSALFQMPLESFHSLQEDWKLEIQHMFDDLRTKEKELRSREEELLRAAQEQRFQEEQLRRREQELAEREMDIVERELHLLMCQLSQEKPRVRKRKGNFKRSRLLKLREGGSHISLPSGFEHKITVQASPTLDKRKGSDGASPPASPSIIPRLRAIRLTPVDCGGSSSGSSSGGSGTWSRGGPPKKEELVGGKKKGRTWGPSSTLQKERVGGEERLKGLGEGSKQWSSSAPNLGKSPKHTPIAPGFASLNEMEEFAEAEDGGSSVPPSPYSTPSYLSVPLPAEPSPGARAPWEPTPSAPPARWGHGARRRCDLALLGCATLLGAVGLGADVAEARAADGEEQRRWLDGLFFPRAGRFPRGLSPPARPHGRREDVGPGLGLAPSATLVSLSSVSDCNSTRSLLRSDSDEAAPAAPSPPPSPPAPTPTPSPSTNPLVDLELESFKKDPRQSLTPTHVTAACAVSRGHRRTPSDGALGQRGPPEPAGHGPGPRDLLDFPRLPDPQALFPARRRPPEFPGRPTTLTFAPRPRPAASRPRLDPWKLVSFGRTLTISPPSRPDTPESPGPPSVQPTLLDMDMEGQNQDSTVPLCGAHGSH
Sequence of Activin receptor type-2B (Homo sapiens) (Q13705 whole entry): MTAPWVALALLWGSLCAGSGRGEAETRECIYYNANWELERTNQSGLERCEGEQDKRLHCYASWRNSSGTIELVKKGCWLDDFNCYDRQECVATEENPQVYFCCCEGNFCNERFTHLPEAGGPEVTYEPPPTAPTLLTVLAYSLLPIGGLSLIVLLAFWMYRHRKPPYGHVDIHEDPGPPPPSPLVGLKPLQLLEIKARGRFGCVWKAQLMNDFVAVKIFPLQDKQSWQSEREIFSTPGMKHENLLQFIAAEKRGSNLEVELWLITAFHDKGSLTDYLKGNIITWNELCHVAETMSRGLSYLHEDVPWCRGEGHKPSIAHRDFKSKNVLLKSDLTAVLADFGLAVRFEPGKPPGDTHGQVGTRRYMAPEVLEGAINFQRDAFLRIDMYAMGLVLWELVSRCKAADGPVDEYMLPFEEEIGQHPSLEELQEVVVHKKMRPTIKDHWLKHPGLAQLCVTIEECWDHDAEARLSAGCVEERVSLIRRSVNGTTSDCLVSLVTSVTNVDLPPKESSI
Sequence of Dual specificity mitogen-activated protein kinase kinase 2 (Homo sapiens) (P36507 whole entry): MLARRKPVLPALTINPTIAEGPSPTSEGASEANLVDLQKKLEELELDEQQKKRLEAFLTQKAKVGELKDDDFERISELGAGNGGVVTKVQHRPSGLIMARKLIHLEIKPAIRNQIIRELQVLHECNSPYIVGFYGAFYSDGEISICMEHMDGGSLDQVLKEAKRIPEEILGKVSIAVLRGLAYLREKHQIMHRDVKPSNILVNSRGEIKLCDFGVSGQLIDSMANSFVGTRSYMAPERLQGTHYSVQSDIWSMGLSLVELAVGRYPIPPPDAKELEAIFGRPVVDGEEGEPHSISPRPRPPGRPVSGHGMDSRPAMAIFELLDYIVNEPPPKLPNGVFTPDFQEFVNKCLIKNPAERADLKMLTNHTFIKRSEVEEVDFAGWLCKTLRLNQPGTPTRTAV
Sequence of Epidermal growth factor receptor (Homo sapiens), P00533 [UNDEFINED MUTATION] (P00533 whole entry, looked up, change not shown): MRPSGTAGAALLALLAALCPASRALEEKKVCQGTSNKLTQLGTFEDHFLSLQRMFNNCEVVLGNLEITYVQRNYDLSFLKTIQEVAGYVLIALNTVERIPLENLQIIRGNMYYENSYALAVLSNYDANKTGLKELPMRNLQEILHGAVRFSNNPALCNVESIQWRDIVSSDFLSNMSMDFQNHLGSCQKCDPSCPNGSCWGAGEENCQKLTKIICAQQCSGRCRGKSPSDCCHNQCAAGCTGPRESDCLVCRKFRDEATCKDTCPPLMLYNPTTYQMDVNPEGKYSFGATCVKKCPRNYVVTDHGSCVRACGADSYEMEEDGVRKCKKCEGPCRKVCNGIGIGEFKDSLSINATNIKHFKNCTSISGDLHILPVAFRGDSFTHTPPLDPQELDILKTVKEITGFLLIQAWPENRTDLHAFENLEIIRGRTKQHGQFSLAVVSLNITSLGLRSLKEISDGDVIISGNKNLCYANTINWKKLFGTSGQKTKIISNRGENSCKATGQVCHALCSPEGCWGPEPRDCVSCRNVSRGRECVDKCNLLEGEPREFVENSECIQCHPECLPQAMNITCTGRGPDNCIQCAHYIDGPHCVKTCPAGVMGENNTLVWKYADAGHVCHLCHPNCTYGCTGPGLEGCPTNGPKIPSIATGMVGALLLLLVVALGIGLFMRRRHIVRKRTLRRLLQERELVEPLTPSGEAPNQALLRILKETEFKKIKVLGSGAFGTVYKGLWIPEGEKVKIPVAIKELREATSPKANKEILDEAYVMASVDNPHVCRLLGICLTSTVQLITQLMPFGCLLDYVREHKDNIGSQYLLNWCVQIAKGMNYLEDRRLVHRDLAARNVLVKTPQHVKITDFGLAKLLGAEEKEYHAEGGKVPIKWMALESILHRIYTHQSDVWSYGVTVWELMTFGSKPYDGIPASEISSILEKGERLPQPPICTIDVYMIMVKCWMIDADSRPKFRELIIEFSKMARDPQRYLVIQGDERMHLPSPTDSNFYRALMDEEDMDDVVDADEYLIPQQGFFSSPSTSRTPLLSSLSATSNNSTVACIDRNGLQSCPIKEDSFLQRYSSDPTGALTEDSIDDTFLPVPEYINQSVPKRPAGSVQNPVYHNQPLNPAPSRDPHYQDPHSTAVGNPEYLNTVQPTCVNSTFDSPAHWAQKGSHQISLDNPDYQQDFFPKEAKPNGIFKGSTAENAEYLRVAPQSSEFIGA
Sequence of Serine/threonine-protein kinase PAK 2 (Homo sapiens) (Q13177 whole entry): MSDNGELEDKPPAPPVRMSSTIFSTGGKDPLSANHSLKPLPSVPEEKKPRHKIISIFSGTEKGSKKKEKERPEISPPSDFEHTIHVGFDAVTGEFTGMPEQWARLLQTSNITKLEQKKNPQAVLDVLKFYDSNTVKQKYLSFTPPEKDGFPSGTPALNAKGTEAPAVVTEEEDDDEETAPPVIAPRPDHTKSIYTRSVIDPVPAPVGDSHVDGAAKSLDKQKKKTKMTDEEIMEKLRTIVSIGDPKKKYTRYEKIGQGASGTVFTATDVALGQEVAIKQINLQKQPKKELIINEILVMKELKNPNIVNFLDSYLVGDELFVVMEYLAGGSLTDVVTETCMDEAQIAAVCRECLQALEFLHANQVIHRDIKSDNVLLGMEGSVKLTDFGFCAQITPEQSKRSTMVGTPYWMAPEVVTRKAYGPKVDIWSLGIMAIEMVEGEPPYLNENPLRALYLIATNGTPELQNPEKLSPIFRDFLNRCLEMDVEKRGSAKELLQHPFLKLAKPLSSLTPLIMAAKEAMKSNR

SMILES | residual activity [1] | residual activity [2] | residual activity [3] | residual activity [4] | residual activity [5] | residual activity [6] | residual activity [7] | residual activity [8] | residual activity [9] | residual activity [10] | residual activity [11] | residual activity [12] | residual activity [13] | residual activity [14] | residual activity [15]
CCc1ccccc1C(=O)Nc1n[nH]c2c(C)c(F)c(C3C(C#N)=C(C)N(C)C(C)=C3C#N)cc12 [BAY-3827] | 100% | 100% | 100% | 43% | 75% | 100% | 99% | 100% | 93% | 100% | 90% | 29% | 100% | 100% | 88%
CC1=C(C#N)C(c2ccc3c(c2)c(NC(=O)c2ccccc2C)nn3C)C(C#N)=C(C)N1 [BAY-974] | 7.5% | 99% | 69% | 88% | 100% | 85% | 100% | 82% | 94% | 100% | 82% | 78% | 79% | 100% | 96%
